Reference: patent US9499554B2, “Anti-influenza compositions and methods” (priority 2013, dated 2016)
In brackets after ≈: the same amount, converted by molar mass. Like-named read-outs stand apart in the source and are kept apart here. Marks after values point to notes of the source that are not given here.

Tests used:
[1] = test system: Influenza A H1N1 CA/04/2009 (Pandemic H1N1); test: microbe, parasite or virus in culture; type: cell-based
[2] = test system: Influenza A H3N2 Brisbane/10/2007; test: microbe, parasite or virus in culture; type: cell-based
[3] = test system: Influenza A H5N1 VN/1203/2004 Hybrid (on H1N1 backbone); test: microbe, parasite or virus in culture; type: cell-based
Influenza B Florida [4] = test: microbe, parasite or virus in culture; type: cell-based
[5] = test system: Parainfluenza 3 14702 (MA-104 cells); test: organism not typed; type: cell-based
[6] = test system: Influenza A H1N1 CA/04/2009 (Pandemic H1N1); test: microbe, parasite or virus in culture; type: cell-based; details: for EC50: Influenza A virus
[7] = test system: Influenza A H3N2 Brisbane/10/2007; test: microbe, parasite or virus in culture; type: cell-based; details: for EC50: Influenza A virus
[8] = test system: Influenza A H5N1 VN/1203/2004 Hybrid (on H1N1 backbone); test: microbe, parasite or virus in culture; type: cell-based; remark: listed apart in the source
Influenza B Florida [9] = test: microbe, parasite or virus in culture; type: cell-based; details: for EC50: Influenza B virus
[10] = test system: Parainfluenza 3 14702 (MA-104 cells); test: organism not typed; type: cell-based; remark: listed apart in the source
A/CA/27/2007 (H1N1) = test: microbe, parasite or virus in culture; type: cell-based; details: Influenza A virus, H1N1, MDCK, read-out: EC50, antiviral activity in MDCK cells
A/Vic/3/75 (H3N2) = test: microbe, parasite or virus in culture; type: cell-based; details: Influenza A virus, H3N2, MDCK, read-out: EC50, antiviral activity in MDCK cells
influenza viruses [11] = test: organism not typed; type: cell-based; details: read-out: EC50 values against the influenza viruses by visual assay
influenza viruses [12] = test: organism not typed; type: cell-based; details: read-out: EC50 values against the influenza viruses as measured by NR assay
[13] = test system: influenza virus H3N2 (A/Victoria/3/75); test: microbe, parasite or virus in culture; type: cell-based; details: H3N2, MDCK; 72 hrs; read-out: Percent Inhibition of Cytopathic Effect
[14] = test system: H3N2 virus (A/Victoria/3/75); set-up: species or system Balb/C mice; details: mouse, in vivo
[15] = test system: H3N2 virus (A/Victoria/3/75); set-up: species or system Balb/C mice; details: mouse, in vivo, po
MDCK cells [16] = details: dog
MA-104 cells [17] = details: African green monkey
MDCK cells [18] = details: dog; remark: listed apart in the source
MA-104 cells [19] = details: African green monkey; remark: listed apart in the source
in vivo = details: female, Balb/c, mouse, po, 100 mg/kg

**Q.** For `Nc1ncnc2c([C@@H]3N[C@H](CO)[C@@H](O)[C@H]3O)c[nH]c12` [compound 1, (2S,3S,4R,5R)-2-(4-Amino-5H-pyrrolo[3,2-d]pyrimidin-7-yl)-5-(hydroxymethyl)pyrrolidine-3,4-diol], which “SI, Visual CPE Assay” value [1] is on record?
**A.** 120

**Q.** And the EC50 ([1]; Influenza A virus, H1N1, read-out: EC50, Visual CPE Assay)?
**A.** 1.8 µg/mL (≈ 6.79 µM)

**Q.** What about the “SI, Visual CPE Assay” value [2] of the same compound?
**A.** 140

**Q.** What about the EC50 ([2]; Influenza A virus, H3N2, read-out: EC50, Visual CPE Assay) of the same compound?
**A.** 1.8 µg/mL (≈ 6.79 µM)

**Q.** And the “SI, Visual CPE Assay” value [3]?
**A.** >1600

**Q.** What about the “SI, Visual CPE Assay” value (Influenza B Florida [4]) of the same compound?
**A.** 290

**Q.** What about the EC50 (Influenza B Florida [4]; Influenza B virus, Influenza B Florida, read-out: EC50, Visual CPE Assay) of the same compound?
**A.** 1.8 µg/mL (≈ 6.79 µM)

**Q.** And the “SI, Visual CPE Assay” value [5]?
**A.** 7.1

**Q.** And the EC50 ([5]; MA104, read-out: EC50, Visual CPE Assay)?
**A.** 14 µg/mL (≈ 52.8 µM)

**Q.** And the “SI, Neutral Red Uptake Assay” value [6]?
**A.** 120

**Q.** And the EC50 ([6]; H1N1, MDCK, read-out: EC50, antiviral activity in MDCK cells)?
**A.** 1.8 µg/mL (≈ 6.79 µM)

**Q.** What about the EC50 ([6]; H1N1, read-out: EC50, Neutral Red Uptake Assay) of the same compound?
**A.** 1.8 µg/mL (≈ 6.79 µM)

**Q.** And the “SI, Neutral Red Uptake Assay” value [7]?
**A.** 79

**Q.** What about the EC50 ([7]; H3N2, MDCK, read-out: EC50, antiviral activity in MDCK cells) of the same compound?
**A.** 5.6 µg/mL (≈ 21.1 µM)

**Q.** And the EC50 ([7]; H3N2, read-out: EC50, Neutral Red Uptake Assay)?
**A.** 5.6 µg/mL (≈ 21.1 µM)

**Q.** And the “SI, Neutral Red Uptake Assay” value [8]?
**A.** 130

**Q.** And the “SI, Neutral Red Uptake Assay” value (Influenza B Florida [9])?
**A.** 38

**Q.** And the EC50 (Influenza B Florida [9]; B/Florida, MDCK cells, Table 2, read-out: EC50, antiviral activity in MDCK cells)?
**A.** 1.8 µg/mL (≈ 6.79 µM)

**Q.** And the EC50 (Influenza B Florida [9]; Influenza B Florida, read-out: EC50, Neutral Red Uptake Assay)?
**A.** 1.8 µg/mL (≈ 6.79 µM)

**Q.** And the “SI, Neutral Red Uptake Assay” value [10]?
**A.** 52

**Q.** And the EC50 ([10]; MA104, read-out: EC50, Neutral Red Uptake Assay)?
**A.** 10 µg/mL (≈ 37.7 µM)

**Q.** And the EC50 (A/CA/27/2007 (H1N1))?
**A.** 0.66 µg/mL (≈ 2.49 µM)

**Q.** What about the EC50 (A/Vic/3/75 (H3N2)) of the same compound?
**A.** 4 µg/mL (≈ 15.1 µM)

**Q.** And the EC50 (influenza viruses [11])?
**A.** 0.63 to 1.8 µg/mL (≈ 2.37 to 6.79 µM)

**Q.** And the EC50 (influenza viruses [12])?
**A.** 1.8 to 5.6 µg/mL (≈ 6.79 to 21.1 µM)

**Q.** And the inhibition at 1.8 µM [13]?
**A.** 1.6 ± 6.1%

**Q.** What about the inhibition at 7.8 µM [13] of the same compound?
**A.** 25.8 ± 4.8%

**Q.** And the “Mean day to death (Mean ± SEM)” value [14]?
**A.** >16 days

**Q.** What about the Survival/Total [14] of the same compound?
**A.** 10/10*

**Q.** And the “effect on survival and weight loss in infected mice” value [14]?
**A.** improves the survival and weight loss

**Q.** And the “effect on survival and weight loss in infected mice” value [15]?
**A.** improves the survival and weight loss

**Q.** What about the “Mean day to death (Mean ± SEM)” value ([15]; 30 mg/kg/day) of the same compound?
**A.** >16 days

**Q.** What about the “Mean weight change (grams ± SEM) Day 9” value ([15]; 30 mg/kg/day) of the same compound?
**A.** −1.58 ± 0.32 grams

**Q.** What about the Survival/Total ([15]; 30 mg/kg/day) of the same compound?
**A.** 10/10*

**Q.** And the “Mean day to death (Mean ± SEM)” value ([15]; 100 mg/kg/day)?
**A.** >16 days

**Q.** What about the Survival/Total ([15]; 100 mg/kg/day) of the same compound?
**A.** 10/10*

**Q.** And the “Mean day to death (Mean ± SEM)” value ([15]; 300 mg/kg/day)?
**A.** >16 days

**Q.** And the “Mean weight change (grams ± SEM) Day 9” value ([15]; 300 mg/kg/day)?
**A.** 0.66 ± 0.23 grams

**Q.** What about the Survival/Total ([15]; 300 mg/kg/day) of the same compound?
**A.** 10/10*

**Q.** And the “IC50 (50% cytotoxic dose), Visual CPE Assay” value (MDCK cells [16])?
**A.** >1000 µg/mL

**Q.** And the “IC50 (50% cytotoxic dose), Visual CPE Assay” value (MA-104 cells [17])?
**A.** 100 µg/mL (≈ 377 µM)

**Q.** And the “IC50 (50% cytotoxic dose), Neutral Red Uptake Assay” value (MDCK cells [18])?
**A.** 130 µg/mL (≈ 490 µM)

**Q.** What about the “IC50 (50% cytotoxic dose), Neutral Red Uptake Assay” value (MA-104 cells [19]) of the same compound?
**A.** 52 µg/mL (≈ 196 µM)

**Q.** What about the concentration at 0.17 hr (in vivo) of the same compound?
**A.** 607 ± 61 ng/mL

**Q.** What about the concentration at 0.5 hr (in vivo) of the same compound?
**A.** 910 ± 122 ng/mL

**Q.** What about the concentration at 1 hr (in vivo) of the same compound?
**A.** 342 ± 122 ng/mL

**Q.** And the concentration at 3 hr (in vivo)?
**A.** 89.7 ± 8.5 ng/mL

**Q.** And the concentration at 5 hr (in vivo)?
**A.** 94.2 ± 6.4 ng/mL

**Q.** And the concentration at 24 hr (in vivo)?
**A.** 50.5 ± 8.9 ng/mL
